Measurements taken from patent US8796244B2, “Imidazopyridine derivatives as inhibitors of receptor tyrosine kinases” (Astex Therapeutics Ltd, priority 2008, dated 2014).
Where a name gives a salt, the structure may show the parent alone.

Assays:
[1] = test system: parental wild-type Ba/F3 cells; assay: Ba/F3 (WT) cell proliferation assay (Alamar Blue); assay type: cell-based; conditions: Mus musculus; for IC50: BaF3, 72 hours, Alamar Blue, read-out: BaF3 WT prolif; for inhibition at 10 µM: BaF3, read-out: BaF3 WT prolif, % inhibition
[2] = test system: LP-1 cell line (FGF-1/Heparin induced pERK); assay: Cell-based pERK ELISA, LP-1 cells; conditions: Homo sapiens; for IC50: LP-1, read-out: LP-1 pERK ELISA (μM)
[3] = LP-1, read-out: LP-1 pERK ELISA, % inhibition

| Structure (SMILES) | IC50 [1] | IC50 [2] | inhibition at 10 µM [1] | inhibition at 0.003 µM [2, 3] | inhibition at 1 µM [2, 3] |
| --- | --- | --- | --- | --- | --- |
| O=C(NCC(F)(F)F)Nc1cccc(-c2cnc3cc(-c4nnc(C5CCCO5)s4)ccn23)c1 (stereo not drawn) [Example 1, 1-(3-{7-[5-(Tetrahydrofuran-2-yl)-[1,3,4]thiadiazol-2-yl]imidazo[1,2-a]pyridin-3-yl}-phenyl)-3-(2,2,2-trifluoroethyl)urea] | 920 nM | 0.0074 µM | – | – | – |
| CCOC(=O)C(C)(C)n1cc(-c2ccn3c(-c4cccc(NC(=O)NCC(F)(F)F)c4)cnc3c2)cn1 [Example 2, 2-Methyl-2-[4-(3-{3-[3-(2,2,2-trifluoroethyl)ureido]phenyl}imidazo [1,2-a]pyridin-7-yl)pyrazol-1-yl] propionic acid ethyl ester] | – | – | 12% | 62% | – |
| O=C(NCC(F)(F)F)Nc1cccc(-c2cnc3cc(-c4ccccn4)ccn23)c1 [Example 3, 1-[3-(7-Pyridin-2-ylimidazo[1,2-a]pyridinyl)phenyl]-3-(2,2,2-trifluoroethyl)urea] | 160 nM | 0.0088 µM | – | – | – |
| O=C(NCC(F)(F)F)Nc1cccc(-c2cnc3cc(-c4cnn(C5CCNCC5)c4)ccn23)c1 [Example 4, 1-{3-[7-(1-Piperidin-4-yl-1H-pyrazol-4-yl)-imidazo[1,2-a]pyridin-3-yl]phenyl}-3-(2,2,2-trifluoroethyl)urea hydrochloride] | – | 0.077 µM | 51% | – | – |
| CC(C)(C(=O)O)n1cc(-c2ccn3c(-c4cccc(NC(=O)NCC(F)(F)F)c4)cnc3c2)cn1 [Example 5, 2-Methyl-2-[4-(3-{3-[3-(2,2,2-trifluoroethyl)ureido]phenyl}imidazo [1,2-a]pyridin-7-yl)pyrazol-1-yl]propionic acid] | – | – | 0% | – | 45% |
| CN1CCC(n2cc(-c3ccn4c(-c5cccc(NC(=O)NCC(F)(F)F)c5)cnc4c3)cn2)CC1 [Example 6, 1-(3-{7-[1-(1-Methyl-piperidin-4-yl)-1H-pyrazol-4-yl]imidazo[1,2-a]pyridin-3-yl}phenyl)-3-(2,2,2-trifluoroethyl)urea] | 870 nM | 0.0092 µM | – | – | – |
| O=C(NCC(F)(F)F)Nc1cccc(-c2cnc3cc(-c4ccc(N5CCCCC5)nn4)ccn23)c1 [Example 7, 1-{3-[7-(6-Piperidin-1-yl-pyridazin-3-yl)-imidazo[1,2-a]pyridin-3-yl]phenyl}-3-(2,2,2-trifluoroethyl)urea] | 860 nM | 0.0063 µM | – | – | – |
| O=C(NCC(F)(F)F)Nc1cccc(-c2cnc3cc(-c4nc5c(s4)CCC5)ccn23)c1 [Example 8, 1-{3-[7-(5,6-Dihydro-4H-cyclopentathiazol-2-yl)imidazo[1,2-a]pyridin-3-yl]-phenyl}-3-(2,2,2-trifluoroethyl)urea] | 450 nM | 0.012 µM | – | – | – |
| CN1CCN(c2ccc(-c3ccn4c(-c5cccc(NC(=O)NCC(F)(F)F)c5)cnc4c3)nn2)CC1 [Example 12, 1-(3-{7-[6-(4-Methylpiperazin-1-yl)pyridazin-3-yl]imidazo[1,2-a]pyridin-3-yl}phenyl)-3-(2,2,2-trifluoroethyl)urea] | 3700 nM | 0.041 µM | – | – | – |
| Cn1cncc1C#Cc1ccn2c(-c3cccc(NC(=O)NCC(F)(F)F)c3)cnc2c1 [Example 13B, 1-{3-[7-(3-Methyl-3H-imidazol-4-ylethynyl)-imidazo[1,2-a]pyridin-3-yl]-phenyl}-3-(2,2,2-trifluoro-ethyl)-urea dihydrochloride] | – | 0.031 µM | 44% | – | – |
| CN(C)CC#Cc1ccn2c(-c3cccc(NC(=O)NCC(F)(F)F)c3)cnc2c1 [Example 14, 1-{3-[7-(3-Dimethylaminoprop-1-ynyl)imidazo[1,2-a]pyridin-3-yl]phenyl}-3-(2,2,2-trifluoroethyl)urea] | 1400 nM | 0.1 µM | – | – | – |
| O=C(NCC(F)(F)F)Nc1cccc(-c2cnc3cc(C#Cc4ccsc4)ccn23)c1 [Example 16, 1-[3-(7-Thiophen-3-ylethynylimidazo[1,2-a]pyridinyl)phenyl]-3-(2,2,2-trifluoroethyl)urea] | 830 nM | 0.11 µM | – | – | – |
